Measurements reported in PMC9093745, “Carbohydrate Metabolism in Bacteria: Alternative Specificities in ADP-Glucose Pyrophosphorylases Open Novel Metabolic Scenarios and Biotechnological Tools” (Frontiers in Microbiology, 2022).

Columns and labels:
Format in all cases: biochemical
[1] = target: T1, A. tumefaciens ADP-Glc PPase (Agrobacterium tumefaciens, UniProt P39669); experiment: effect on ADP-Glc synthesis, malachite green Pi release; conditions: allosteric effector, lowers activity; Glc-1P and ATP as substrates, Mg2+, pH 8.0, 37°C
T1 construct: gene glgC; recombinant in E. coli; proteobacterial enzyme is a GlgC homotetramer
T1 sequence (P39669 1-420): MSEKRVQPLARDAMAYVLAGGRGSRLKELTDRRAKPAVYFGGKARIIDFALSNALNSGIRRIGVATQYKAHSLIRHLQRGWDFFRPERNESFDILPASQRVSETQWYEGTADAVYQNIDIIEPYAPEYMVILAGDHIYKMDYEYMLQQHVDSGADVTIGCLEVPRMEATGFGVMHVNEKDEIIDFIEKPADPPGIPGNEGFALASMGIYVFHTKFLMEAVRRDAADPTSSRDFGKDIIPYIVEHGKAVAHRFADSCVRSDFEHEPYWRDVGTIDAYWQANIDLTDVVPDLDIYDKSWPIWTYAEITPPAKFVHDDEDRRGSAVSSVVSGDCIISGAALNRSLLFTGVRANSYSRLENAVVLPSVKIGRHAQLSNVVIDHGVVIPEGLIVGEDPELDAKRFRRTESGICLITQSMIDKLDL

[2] = target: T2, R. fascians ADP-Glc PPase (Rhodococcoides fascians, UniProt A0A143QED7); experiment: activation of ADP-Glc synthesis, malachite green Pi release; conditions: allosteric activator; Glc-1P and ATP as substrates, Mg2+, pH 8.0, 37°C
T2 construct: gene glgC; recombinant in E. coli BL21 (DE3), His-tagged, IMAC purified; actinobacterial enzyme is a GlgC tetramer
T2 sequence (A0A143QED7 1-404): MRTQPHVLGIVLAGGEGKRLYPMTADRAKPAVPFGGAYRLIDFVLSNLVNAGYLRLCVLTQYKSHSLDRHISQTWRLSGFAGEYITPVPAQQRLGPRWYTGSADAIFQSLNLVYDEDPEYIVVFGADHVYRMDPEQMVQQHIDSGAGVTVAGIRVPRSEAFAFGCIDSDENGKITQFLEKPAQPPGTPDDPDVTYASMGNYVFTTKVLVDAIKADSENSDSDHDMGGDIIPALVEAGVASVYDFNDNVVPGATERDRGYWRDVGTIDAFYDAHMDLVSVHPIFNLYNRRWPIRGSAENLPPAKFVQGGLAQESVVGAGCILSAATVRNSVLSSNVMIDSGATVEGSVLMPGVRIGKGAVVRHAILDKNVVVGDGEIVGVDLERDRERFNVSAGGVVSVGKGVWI

[3] = target: T3, K. rhizophila ADP-Glc PPase (Kocuria rhizophila, UniProt B2GHR6); experiment: activation curve, malachite green Pi release coupled to pyrophosphatase; conditions: allosteric activator (Vmax 4-fold); Glc-1P and ATP as substrates, Mg2+, pH 8.0, 37°C; read-out: A0.5
T3 construct: gene glgC; recombinant in E. coli BL21 (DE3), His-tagged, IMAC purified; actinobacterial enzyme is a GlgC tetramer
T3 sequence (B2GHR6 1-414): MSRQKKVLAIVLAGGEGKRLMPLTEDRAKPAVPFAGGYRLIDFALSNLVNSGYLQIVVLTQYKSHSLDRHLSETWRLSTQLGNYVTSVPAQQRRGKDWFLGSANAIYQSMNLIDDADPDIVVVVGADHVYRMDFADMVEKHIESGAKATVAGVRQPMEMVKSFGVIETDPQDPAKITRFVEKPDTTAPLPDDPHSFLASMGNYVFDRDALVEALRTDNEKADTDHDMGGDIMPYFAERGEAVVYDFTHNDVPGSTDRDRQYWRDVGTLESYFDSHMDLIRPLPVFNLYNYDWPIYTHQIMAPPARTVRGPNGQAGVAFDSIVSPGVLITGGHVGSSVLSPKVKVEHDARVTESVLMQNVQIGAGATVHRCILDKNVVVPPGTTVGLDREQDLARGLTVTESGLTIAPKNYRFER

[4] = target: T4, R. albus ADP-Glc PPase GlgC/GlgD (Hominimerdicola alba, UniProt E9SED8); experiment: activation of ADP-Glc synthesis, malachite green Pi release; conditions: allosteric activator; Glc-1P and ATP as substrates, Mg2+, pH 8.0, 37°C
T4 construct: recombinant in E. coli, IMAC purified; heterotetramer; with Glucose-1-phosphate adenylyltransferase, GlgD subunit
T4 sequence (E9SED8 1-400): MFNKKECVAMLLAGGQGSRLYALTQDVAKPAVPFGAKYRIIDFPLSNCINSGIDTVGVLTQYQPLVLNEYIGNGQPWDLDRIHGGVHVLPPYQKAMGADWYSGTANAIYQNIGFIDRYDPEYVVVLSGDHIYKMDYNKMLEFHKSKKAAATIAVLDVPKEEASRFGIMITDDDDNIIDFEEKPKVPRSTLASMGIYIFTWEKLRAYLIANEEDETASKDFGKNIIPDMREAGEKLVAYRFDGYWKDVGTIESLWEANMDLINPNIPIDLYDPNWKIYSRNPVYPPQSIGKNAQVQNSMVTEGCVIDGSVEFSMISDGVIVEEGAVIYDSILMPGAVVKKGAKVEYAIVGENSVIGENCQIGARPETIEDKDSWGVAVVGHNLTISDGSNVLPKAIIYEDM
T4 sequence (E9SED9 1-371 partner): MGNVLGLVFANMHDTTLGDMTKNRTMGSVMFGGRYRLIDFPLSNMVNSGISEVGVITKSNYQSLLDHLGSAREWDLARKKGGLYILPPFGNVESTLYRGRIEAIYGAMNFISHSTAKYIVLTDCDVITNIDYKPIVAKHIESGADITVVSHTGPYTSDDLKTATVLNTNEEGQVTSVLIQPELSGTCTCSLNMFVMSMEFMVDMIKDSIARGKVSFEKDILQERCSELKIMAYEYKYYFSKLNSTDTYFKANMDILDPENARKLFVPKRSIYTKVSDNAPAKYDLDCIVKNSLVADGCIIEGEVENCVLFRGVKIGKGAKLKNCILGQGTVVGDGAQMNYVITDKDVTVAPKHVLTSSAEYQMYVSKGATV

[5] = target: T5, R. albus ADP-Glc PPase GlgC (Hominimerdicola alba, UniProt E9SED8); experiment: as above; conditions: allosteric activator; Glc-1P and ATP as substrates, Mg2+, pH 8.0, 37°C
T5 construct: recombinant in E. coli, IMAC purified; homotetramer
T5 sequence (E9SED8 1-400): T4 sequence (E9SED8 1-400)

[6] = target: T6, S. coelicolor ADP-Glc PPase (Streptomyces coelicolor, UniProt P72394); experiment: activation curve, malachite green Pi release coupled to pyrophosphatase; conditions: allosteric activator (4-fold); Glc-1P and ATP as substrates, Mg2+, pH 8.0, 37°C; read-out: A0.5
T6 construct: gene glgC; recombinant in E. coli BL21 (DE3), His-tagged, IMAC purified; actinobacterial enzyme is a GlgC tetramer
T6 sequence (P72394 1-399): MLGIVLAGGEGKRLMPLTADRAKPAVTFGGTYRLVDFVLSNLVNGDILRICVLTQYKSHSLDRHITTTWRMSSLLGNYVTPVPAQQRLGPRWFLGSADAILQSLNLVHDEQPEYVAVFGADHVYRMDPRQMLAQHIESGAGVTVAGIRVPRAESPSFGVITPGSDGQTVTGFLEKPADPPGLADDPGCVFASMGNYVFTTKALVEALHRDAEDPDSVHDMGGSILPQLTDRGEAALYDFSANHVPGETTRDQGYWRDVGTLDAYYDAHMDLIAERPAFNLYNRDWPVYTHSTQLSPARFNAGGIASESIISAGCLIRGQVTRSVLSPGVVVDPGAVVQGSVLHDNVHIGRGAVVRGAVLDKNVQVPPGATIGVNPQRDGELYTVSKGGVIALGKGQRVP

[7] = target: T1, A. tumefaciens ADP-Glc PPase; experiment: saturation curve, malachite green Pi release coupled to pyrophosphatase; conditions: ATP co-substrate, Mg2+, pH 8.0, 37°C

| Structure (SMILES) | % decrease of activity [1] | fold activation [2] | EC50 [3] [µM] | activation of ADP-Glc synthesis, malachite green Pi release [4] | activation of ADP-Glc synthesis, malachite green Pi release [5] | EC50 [6] [µM] | Km [7] |
| --- | --- | --- | --- | --- | --- | --- | --- |
| N[C@H]1C(O)O[C@H](COP(=O)(O)O)[C@@H](O)[C@@H]1O (some centres unmarked) [GlcN-6P] | ~ 30% | ~ 8 fold | 80 | both R. albus GlgC and GlgC/GlgD responded to GlcN-6P activation | both R. albus GlgC and GlgC/GlgD responded to GlcN-6P activation | 3550 ± 520 | – |
| N[C@H]1[C@@H](OP(=O)(O)O)O[C@H](CO)[C@@H](O)[C@@H]1O [GlcN-1P] | – | – | – | – | – | – | The enzyme was active with GlcN-1P as a substrate |
| O=P(O)(O)OC[C@H]1OC(O)[C@H](O)[C@@H](O)[C@@H]1O (some centres unmarked) [Glc-6P] | – | ~ 8 fold | – | – | – | – | – |
